Assay [1] deals with T1, Cathepsin K (Homo sapiens, UniProt P43235).
T1 sequence (P43235 whole entry): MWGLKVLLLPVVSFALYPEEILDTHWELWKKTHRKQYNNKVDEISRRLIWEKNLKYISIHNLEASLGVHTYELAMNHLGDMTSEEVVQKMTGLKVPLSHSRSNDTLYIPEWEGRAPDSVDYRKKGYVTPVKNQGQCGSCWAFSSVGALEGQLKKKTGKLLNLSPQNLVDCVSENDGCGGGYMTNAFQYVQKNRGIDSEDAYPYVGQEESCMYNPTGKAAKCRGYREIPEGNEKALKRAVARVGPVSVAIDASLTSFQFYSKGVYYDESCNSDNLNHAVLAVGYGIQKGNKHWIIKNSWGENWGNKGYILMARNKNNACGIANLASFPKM
Kind of assay: Relative binding affinity was measured for Cathepsin K. The conditions noted are these: read-out: Ki app.

Assay [2] addresses T2, Cathepsin K (Homo sapiens) (UniProt P43235).
T2 sequence (whole entry): T1 sequence (P43235 whole entry)
Put plainly: Second order rate constant was measured for the inhibition of Cathepsin K.

Consider `CC(C)C[C@H](NC(=O)OCc1ccccc1)C(=O)NNC(=O)NNC(=O)c1ccccc1`, for which the Ki in assay [1] worked out at 120 nM. The second-order inhibition rate constant (kobs/[I]) in assay [2] came out at 38000 M⁻¹ s⁻¹.

For `CCC[C@H](NC(=O)OCc1ccccc1)C(=O)NNC(=O)NNC(=O)[C@H](CC(C)C)NC(=O)OCc1ccccc1`, the Ki in assay [1] is 0.8 nM. The second-order inhibition rate constant (kobs/[I]) in assay [2] worked out at 4e+06 M⁻¹ s⁻¹.

For the compound `CC(C)C[C@H](NC(=O)OCc1ccccc1)C(=O)NNC(=O)NNC(=O)c1ccc(OCc2ccccc2)cc1`, in assay [1], the Ki came to 100 nM. For the same compound, the second-order inhibition rate constant (kobs/[I]) in assay [2] was 44000 M⁻¹ s⁻¹.

In the case of `CC[C@H](NC(=O)OCc1ccccc1)C(=O)NNC(=O)NNC(=O)[C@H](CC(C)C)NC(=O)OCc1ccccc1`, the Ki in assay [1] turned out to be 3.4 nM. This compound also yielded a second-order inhibition rate constant (kobs/[I]) in assay [2] of 490000 M⁻¹ s⁻¹.

In the case of `CC(C)C[C@H](NC(=O)OCc1ccccc1)C(=O)NNC(=O)NNC(=O)[C@H](CC(C)C)NC(=O)OCc1ccccc1`, the Ki in assay [1] worked out at 0.7 nM. In addition, the second-order inhibition rate constant (kobs/[I]) in assay [2] turned out to be 3.1e+06 M⁻¹ s⁻¹.

`CC(C)C[C@H](NC(=O)OCc1ccccc1)C(=O)NNC(=O)NNC(=O)c1cccc(OCc2ccccc2)c1`: in assay [1], the Ki came out at 27 nM. For the same compound, the second-order inhibition rate constant (kobs/[I]) in assay [2] is 224000 M⁻¹ s⁻¹.

As to `CC(C)C[C@H](NC(=O)OCc1ccccc1)C(=O)NNC(=O)NNC(=O)[C@H](C)NC(=O)OCc1ccccc1`, the Ki in assay [1] amounted to 1 nM. The second-order inhibition rate constant (kobs/[I]) in assay [2] stood at 685000 M⁻¹ s⁻¹.

For `CC(C)C[C@H](NC(=O)OCc1ccccc1)C(=O)NNC(=O)NNC(=O)c1ccccc1OCc1ccccc1`, in assay [1], the Ki is 12 nM. The compound also yielded a second-order inhibition rate constant (kobs/[I]) in assay [2] of 318000 M⁻¹ s⁻¹.

For the origin of these results see ChEMBL document CHEMBL1131128, “Structure-based design of cathepsin K inhibitors containing a benzyloxy-substituted benzoyl peptidomimetic” (J Med Chem, 1998).
